The values below come from patent publication US7183267B2, “β-lactamase inhibitors and methods of use thereof” (priority 2003, dated 2007).

One data set concerns the target β-lactamase M69I (Escherichia coli, UniProt P62593, M67I). Kind of data set: Isothermal titration calorimetry, binding enthalpy, M69I mutant. The protocol:
(§1) The binding of the compounds of the present invention to β-lactamase was also measured by isothermal titration calorimetry.
(§2) These experiments, in combination with the inhibition assays, indicate that the compounds identified in this disclosure bind to the wild type as well as drug resistant beta lactamases with favorable binding enthalpies. This is a very important characteristic from the point of view of further optimization since it facilitates the achievement of extremely high affinities and low susceptibilities to drug resistant mutations and naturally occurring polymorphisms.
(§3) Isothermal titration calorimetry was performed on a high-precision VP-ITC titration calorimeter (Microcal Inc., Northampton, Mass.). β-Lactamase solutions were titrated with inhibitors in 50 mM sodium phosphate, 2% DMSO, pH 7.0, with β-lactamase concentrations ranging from 15 to 25 μM and inhibitor concentrations ranging from 300 to 1000 μM. The heat evolved from each injection was obtained by integrating the calorimetric signal. Heat of binding was obtained as the difference between the heat of reaction and the heat of inhibitor dilution. Data were analyzed using Origin 7.0 (OriginLab Corporation, Northampton, Mass.).

The target in the next data set is β-lactamase E104K (Escherichia coli, UniProt P62593, E102K). Description: Isothermal titration calorimetry, binding enthalpy, E104K mutant. As to the method:
as §1, §2, §3

A further data set has as its target β-lactamase R244S (Escherichia coli, UniProt P62593, R241S). Kind of data set: Isothermal titration calorimetry, binding enthalpy, R244S mutant. The protocol:
as §1, §2, §3

Another data set addresses β-lactamase mutant E104K (Escherichia coli, UniProt P62593, E102K). In kind it is biochemical. Particulars: number higher than 1 reflects a loss of potency against mutant. As to the method:
(§4) The inhibition of TEM-1 β-lactamase was determined spectrophotometrically. B-lactamase activity was followed by measuring the hydrolysis of nitrocefin, [3-(2,4-dinitrostyryl)-(6R, 7R)-7-(2-thienylacetamido)-ceph-3-em-4-carboxylic acid, E-isomer], (Calbiochem, San Diego, Calif., USA) at 486 nm. Inhibition assays were performed at 25° C. in 50 mM sodium phosphate, 5% DMSO, pH 7.0. […] Inhibitor was added to the enzyme and incubated for ten minutes before the addition of substrate. Inhibition constants (Ki) for the inhibitors are obtained at the desired temperature and solvent conditions by measuring the rate of substrate hydrolysis at increasing amounts of inhibitors.
(§5) Three of the most important mutations are M69I, R244S and E104K.

The target in another data set is β-lactamase mutant M69I (Escherichia coli, UniProt P62593, M67I). It counts as biochemical. Particulars: number higher than 1 reflects a loss of potency against mutant. The protocol:
as §4, §5

Another data set concerns the target β-lactamase mutant R244S (Escherichia coli, UniProt P62593, R241S). It counts as biochemical. To be noted: number higher than 1 reflects a loss of potency against mutant. The protocol: as §4, §5
For a further data set, the target named is β-lactamase wt (Escherichia coli, UniProt P62593). Kind of data set: Isothermal titration calorimetry, binding enthalpy, wild type. The protocol:
as §1, §2, §3

Data set [1] concerns the target T1, TEM-1 β-lactamase (Escherichia coli, UniProt P62593). Description: TEM-1 β-lactamase inhibition assay (nitrocefin hydrolysis, 486 nm). In kind it is biochemical. Put shortly: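 TEM-1 activity followed by nitrocefin hydrolysis at 486 nm, 25 °C, 50 mM sodium phosphate pH 7.0, 5% DMSO; inhibitor preincubated with enzyme 10 min before substrate. Ki obtained from rates at increasing inhibitor concentrations fitted to competitive-inhibition equations; penicillin G also used as substrate for KM and kcat.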

The target in data set [2] is T1, TEM-1 β-lactamase. Kind of data set: Isothermal titration calorimetry, binding to TEM-1 β-lactamase (Example 17). Particulars: ITC. Put shortly: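 TEM-1 β-lactamase (15–25 μM) titrated with inhibitor (300–1000 μM) in 50 mM sodium phosphate, 2% DMSO, pH 7.0. Integrated injection heats were corrected for inhibitor dilution heat to give binding heat.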
Another data set concerns the target T2, AmpC β-lactamase (Escherichia coli, UniProt P00811).
T2 construct: made in house; host or cells: E. coli BL21 (DE3)
In kind it is biochemical. To be noted: substrate hydrolysis by AmpC, 25° C., pH 7.0. The protocol: The competitive inhibition of β-lactamase was determined spectrophotometrically using a Varian (Walnut Creek, Calif.) Cary 100 UV-Visible spectrophotometer. β-lactamase activity was followed by measuring the hydrolysis of nitrocefin, [3-(2,4-dinitrostyryl)-(6R, 7R)-7-(2-thienylacetamido)-ceph-3-em-4-carboxylic acid, E-isomer], (Calbiochem, San Diego, Calif.) at 486 nm. Inhibition assays were performed at 25° C. in 50 mM sodium phosphate, 5% DMSO, pH 7.0. […] Penicillin G (Sigma, St. Louis, Mo.) was also used as a substrate to determine KM and kcat.

Setting [3] is: Ki, 25° C., 50 mM sodium phosphate, 5% DMSO, pH 7.0, enzyme 5 nM, nitrocefin 167 μM.

“And” between values parts separate entries of the source, which are not always exact repeats. Identical values can stand only once. Like-named read-outs stand apart in the source and are kept apart here.

T2 sequence (P00811 20-377): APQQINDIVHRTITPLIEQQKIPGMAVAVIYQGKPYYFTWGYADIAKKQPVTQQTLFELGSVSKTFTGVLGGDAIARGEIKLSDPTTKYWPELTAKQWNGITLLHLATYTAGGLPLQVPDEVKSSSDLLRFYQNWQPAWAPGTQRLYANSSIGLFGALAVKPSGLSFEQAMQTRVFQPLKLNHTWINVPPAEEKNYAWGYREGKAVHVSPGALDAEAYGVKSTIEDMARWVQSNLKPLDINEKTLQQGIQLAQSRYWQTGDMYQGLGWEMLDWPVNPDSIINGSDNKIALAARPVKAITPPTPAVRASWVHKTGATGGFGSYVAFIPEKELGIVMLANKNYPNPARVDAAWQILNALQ

For `O=C(Oc1ccccc1[N+](=O)[O-])c1cc(B(O)O)cc([N+](=O)[O-])c1` [Compound (1b), 3-(2-Nitrophenoxycarbonyl)-5-nitrophenylboronic acid], the melting point fell in the range of 128 to 130 °C. Also, the “ΔH M69I” value on β-lactamase M69I is -2 kcal/mol. Besides, the “ΔH E104K” value at β-lactamase E104K is -3.9 kcal/mol. In addition, on β-lactamase R244S, the “ΔH R244S” value was -9.5 kcal/mol. For the same compound, the “Loss of potency: ratio of the inhibitory constant between mutant and wild type (Potencywt/Potencymutant), E104K” value at β-lactamase mutant E104K was determined as 0.92. Further, at β-lactamase mutant M69I, the “Loss of potency: ratio of the inhibitory constant between mutant and wild type (Potencywt/Potencymutant), M69I” value stood at 1.0. Moreover, the “Loss of potency: ratio of the inhibitory constant between mutant and wild type (Potencywt/Potencymutant), R244S” value at β-lactamase mutant R244S is 1.2. Further, on β-lactamase wt, the ΔH wt is -3.8 kcal/mol. Moreover, the Ki on TEM-1 β-lactamase [1] (Ki from Lineweaver-Burke Analysis, values in parenthesis, Lineweaver-Burke analysis) is 1.18 µM. At TEM-1 β-lactamase [1] (setting [3]), this compound registered a Ki of 12 ± 3 µM. Besides, the Ki at TEM-1 β-lactamase [1] (Ki, TEM-1 β-lactamase) was 12 µM. Moreover, on TEM-1 β-lactamase [2], the ΔG was -6.42 kcal/mol, the ΔH was -4.011 kcal/mol and the “−TΔS” value was -2.409 kcal/mol.

Compound `O=C(Oc1cccc([N+](=O)[O-])c1)c1cc(B(O)O)cc([N+](=O)[O-])c1` [Compound (1c), 3-(3-Nitrophenoxycarbonyl)-5-nitrophenylboronic acid] returned a melting point of 185 to 187 °C. Moreover, the “Loss of potency: ratio of the inhibitory constant between mutant and wild type (Potencywt/Potencymutant), E104K” value at β-lactamase mutant E104K is listed as 0.56. At β-lactamase mutant M69I, the “Loss of potency: ratio of the inhibitory constant between mutant and wild type (Potencywt/Potencymutant), M69I” value was 1.0. At β-lactamase mutant R244S, the “Loss of potency: ratio of the inhibitory constant between mutant and wild type (Potencywt/Potencymutant), R244S” value was determined as 0.52. The compound further yielded an inhibition constant (Ki) at TEM-1 β-lactamase [1] (setting [3]) of 39 ± 7 µM.

Consider `O=C(Cc1cccs1)N[C@@H]1C(=O)N2C(C(=O)O)=C(/C=C/c3ccc([N+](=O)[O-])cc3[N+](=O)[O-])CS[C@H]12` [nitrocefin, 3-(2,4-dinitrostyryl)-(6R, 7R)-7-(2-thienylacetamido)-ceph-3-em-4-carboxylic acid, E-isomer], for which, on AmpC β-lactamase, the Km was 250 µM and 253 µM; the kcat was 975 s⁻¹ and 976 ± 46 s⁻¹.

On to `COc1ccc(OC(=O)c2cc(B(O)O)cc([N+](=O)[O-])c2)cc1` [Compound (1d), 3-(4-Methoxyphenoxycarbonyl)-5-nitrophenylboronic acid], for which the melting point came to 67 °C. In addition, the “Loss of potency: ratio of the inhibitory constant between mutant and wild type (Potencywt/Potencymutant), E104K” value on β-lactamase mutant E104K is recorded as 0.55. At β-lactamase mutant M69I, the “Loss of potency: ratio of the inhibitory constant between mutant and wild type (Potencywt/Potencymutant), M69I” value was found to be 0.60. Moreover, the “Loss of potency: ratio of the inhibitory constant between mutant and wild type (Potencywt/Potencymutant), R244S” value at β-lactamase mutant R244S worked out at 0.62. This compound returned a Ki on TEM-1 β-lactamase [1] (setting [3]) of 42 ± 7 µM.

For the compound `CC1(C)S[C@@H]2[C@H](NC(=O)Cc3ccccc3)C(=O)N2[C@H]1C(=O)O` [penicillin G, Penicillin G], at AmpC β-lactamase, the kcat came out at 198 ± 4 s⁻¹. Further, the Km at AmpC β-lactamase (read-out: KM) amounted to 28 ± 3 µM.
